Assays:
AMPK = experiment: SAMS peptide AMPK activity assay; format: biochemical; conditions: 2.5, 5 or 10 μM
Description: 50 ng AMPK (Upstate #14-305) was mixed in various combination with 2.5, 5 or 10 μM test material or 20 μM AMP (Sigma #A2002) in buffer (40 mM Hepes pH7.45, 0.5 mM DTT, 2 mM MgCl2, 0.1% DMSO). In all settings 10 μg SAMS and 0.03 μCi/μl ^32P ATP (Perkin Elmer #NEG502Z500UC) were added. Total reaction volume was 25 μl, all components mixed on ice and the reaction carried out at 37° C., 15 minutes, before terminated with 5 μl phosphoric acid, and placed back on ice. 25 μl reaction were dried in on Whatman P81 filters, 50° C., 2 minutes, washed 3 times in 250 ml 1% phosphoric acid, 2 minutes, before added to 4 ml liquid scintillation cocktail (Perkin Elmer #1200-437) and counted, 1 minute, in a Wallac 1414 beta counter. The radioactivity correlates to enzyme activity.

CBA mice on HFD = experiment: In vivo lipogenesis; conditions: 2 mg/g in HFD, 5 weeks
Description: After 90 minutes 0.2-0.3 g liver were isolated and homogenised in 3 ml PBS before addition of 6 ml chloroform/methanol (2:1). Samples were mixed until phase separation no longer occurred and left at RT 30 minutes before centrifuged, 4,500 rpm, 5 minutes. The water phase was removed and 3 ml chloroform transferred to a scintillation vial and evaporated to dryness by a stream of nitrogen while standing in a 40° C. water bath. The residue was dissolved in 3 ml optiphase hisafe 3 (Perkin Elmer #1200.437) and ^3H determined for 1 minute in a Wallac 1414 counter. ^3H values were normalised to liver weight.

Zucker rats = experiment: Infrared thermal imaging; format: in vivo; conditions: 10 mg/kg/day, 12 days
Description: Skin temperature of non-sedated Zucker rats that had been treated with test material (10 mg/kg/day) or vehicle for 12 days was recorded with an infrared camera (FLIR ix series Extech IRC30, FLIR systems Inc.) and analysed with a specific software package (FLIR QuickReport version 1.2 SP2 (1.0.1.217). 9 rats per group was used and mean and maximum skin surface temperatures were measured for each animal 2 hours after final dose administration.

aged, lean B6 mice = experiment: Treadmill endurance test; format: in vivo; conditions: 20 mg/kg/day gavage, 30 days
Description: One week prior to the test mice went through a familiarization session of 5 minutes on the treadmill. Running protocol as follows: 15 minutes at 18.8 m/minute, 5 minutes at 24.4 m/minute and 27.1 m/minute until exhaustion. At exhaustion, blood lactate levels were measured using a lactate test meter (Arkray).

[1] = test system: T2D patients on Metformin; experiment: Phase IIa clinical trial (TELLUS), 28 days; format: in vivo, human; conditions: for T2*-grad / Δ-T2*: group-averaged curve fitting
Description: An exploratory proof-of-concept randomised, parallel-group, double-blinded, placebo-controlled phase IIa 28-day study (TELLUS) of the first-in-class AMPK activator (the test material; 1,000 mg/day) was conducted in 65 T2D patients on Metformin for months, aiming at further exploring safety of test material and the effect of test material on FPG at a single-dose level.
Main inclusion criteria: Male and female patients, 18-80 years of age, with uncomplicated T2D, on stable T2D treatment with Metformin monotherapy for 3 months. HbA1c of ≥6.5% and 9.0%, and not FPG at day 1, was selected as the main inclusion criterion.
Main exclusion criteria: History of myocardial infarction (MI), unstable angina, stroke or transient ischemic attack (TIA). Congestive heart failure defined as New York Heart Association (NYHA) class III-IV. Any clinically significant abnormalities in physical examination, ECG or clinical chemistry results, as judged by the Investigator.
A good-manufacturing practice (GMP) batch of 5 kg test material was manufactured by Anthem BioSciences Pvt.Ltd, Bangalore, Karnataka, India. The suspension is composed of test material 20 mg/ml in 2% methylcellulose in phosphate buffer. A 2% methylcellulose suspension that colour matched the active product was used as placebo. The test material and placebo suspensions were manufactured, packaged and labelled by Recipharm Pharmaceutical Development AB, Solna, Sweden.
Sixty-five (65) patients were randomised (1:1) to treatment with either the material or placebo. A screening visit (Visit 1) was performed within 3 weeks before randomisation and the start of IMP administration. Patients were randomised on Day 1 (Visit 2) and allocated to 28 days' treatment with either test material or placebo (1:1). Study visits to the clinic were performed 7, 14, 21, 28, 29 and 40 days (Visits 3 to 8) following randomisation and start of treatment. The patients were confined to the research clinic from the evening before Day 1 and Day 28 (Day −1 and Day 27, respectively) to ensure fasting conditions before samples for analyses of FPG were collected. Magnetic Resonance Imaging (MRI) scans after screening but before day 1 and after end of treatment were performed at the University Hospital in Uppsala, Sweden, according to standardised methods. Antaros Medical in Uppsala performed the data analysis. A clinical read of the acquired scans was performed by a radiologist at Antaros Medical. If clinically significant findings were noted by the radiologist, the Investigator was notified of the finding. The Investigator was to evaluate and handle the finding as per standard medical/clinical judgment.
Any findings were reported as either baseline events or adverse events, if they started, or worsened after administration of the first dose of IMP. The method used for assessing microvascular function in the calf muscle, (a proxy for oxygenation), include a dynamic MRI investigation of T2* determination before during and after reactive hyperemia (Reference 4). Sixty five (65) patients were randomised, 32 patients in the placebo group and 33 in the test material group, and 59 patients completed the study (28 and 31 in the two groups, respectively). HbA1c of 6.5% and 9.0%, and not FPG at day 1, was used as the inclusion criterion since MRI examinations had to be performed after screen but before day 1.

[2] = subjects with long TTP at baseline

In the case of `O=C(Nc1nc(=O)n(Cc2ccc(Cl)cc2)s1)c1ccc(Cl)cc1` [test material, 4-chloro-N-[2-[(4-chlorophenyl)methyl]-3-oxo-1,2,4-thiadiazol-5-yl]benzamide], the “allosteric activation of AMPK” value (AMPK) is reported as “did not allosterically activate AMPK”, the “reduction of hepatic DNL” value (CBA mice on HFD) is reported as about 45% and the skin-surface temperature (Zucker rats) is reported as “increased”. For the same molecule, the “blood lactate levels after endurance test” value (aged, lean B6 mice) was “significantly reducing the increase in blood lactate levels”, the “endurance capacity (running distance to exhaustion)” value (aged, lean B6 mice; vs vehicle) was “significantly improved endurance capacity” and the “mean absolute reduction in diastolic blood pressure, day 28 vs day 1” value ([1]; 1,000 mg/day) was −3.8 mmHg. For the same molecule, the “mean absolute reduction in systolic blood pressure, day 28 vs day 1” value ([1]; 1,000 mg/day) was −5.8 mmHg, the tolerability ([1]; 1,000 mg/day, 28 days) was “well tolerated” and the “HOMA-IR at day 28 compared with day 1” value ([1]; 1,000 mg/day, Wilcoxon test within group) was “statistically significant both absolute (P=0.0097) and relative (P=0.017) reduction”. The “change in mean heart rate at day 28 compared with baseline” value ([1]; 1,000 mg/day, not significant) was −1.6 bpm, the “mean absolute reduction in FPG at day 28 compared with day 1” value ([1]; 1,000 mg/day, post hoc, FPG >7 to <13.3 mmol/l at day 1) was -0.60 mM and the “T2*-grad” value ([1]; MR1 (screening/baseline)) was 0.528 min⁻¹. For the same molecule, the “Δ-T2*” value ([1]; MR1 (screening/baseline)) was 0.072, the “T2*-grad” value ([1]; MR2 (day 27-29)) was 0.665 min⁻¹ and the “Δ-T2*” value ([1]; MR2 (day 27-29)) was 0.081. For the same molecule, the “plasma t1/2” value ([1]; T2D patients) was “long”, the “time to plasma steady-state concentration” value ([1]; T2D patients) was at least 14 days and the “T2*-gradient at day 28 compared with baseline” value ([1]; individual curve fitting, Wilcoxon within group) was “significant relative increase”. For the same molecule, the “Δ−T2* (hyperemic perfusion) at day 28 compared with baseline” value ([1]; individual curve fitting, vs placebo, 2-way ANOVA) was “statistically significant increase”, the “time-to-peak (TTP), MRI1 vs MRI2” value [1, 2] was “significant shortening of TTP” and the “Δ−T2*, MRI1 vs MRI2” value [1, 2] was “increase”.

Source: US20220023269A1, “Methods Of Treating Diabetes In Severe Insulin-Resistant Diabetic Subjects” (Balticgruppen Bio AB, priority 2018, published 2022)
